Read-outs that look alike come from different tables or passages of the source.
Tests used:
[1] = in vitro; conditions: human
[2] = test system: MIA-Paca2 (KRAS G12C); test: Tumor cell proliferation inhibition assay (CellTiter-Glo), MIA-Paca2; type: cell-based, Human; conditions: Homo sapiens, MIA PaCa-2, 72 h, 10% fetal bovine serum
Method in brief: (§1)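 Growth was read as ATP by CellTiter-Glo luminescence, with inhibition normalised to DMSO (max) and medium-only (min) wells. IC50 came from sigmoidal dose-response fits.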

[3] = Pharmacokinetic (PK) experiment in rats by gavage; type: in vivo; conditions: rat, plasma, po, male SD rats, 20 mg/kg; for AUC(0-t): read-out: AUC0-24
[4] = test system: H358 (KRAS G12C); test: Tumor cell proliferation inhibition assay (CellTiter-Glo), H358; type: cell-based, Human; conditions: Homo sapiens, NCI-H358, 72 h, 10% fetal bovine serum
Method in brief: as §1

[5] = Caco-2 cell transmembrane transport experiment; conditions: human; for Papp B→A at 90 min, 10 μM: basolateral to apical
[6] = test system: H23 (KRAS G12C); test: Tumor cell proliferation inhibition assay (CellTiter-Glo), H23; type: cell-based, Human; conditions: Homo sapiens, 72 h, 10% fetal bovine serum
Protocol: The H358, H23 or MIA-Paca2 cells were digested, centrifuged and resuspended, and the cell density was measured with a Scepter automatic cell counter. Cells were diluted to a solution containing 44,000 cells per milliliter, then added to a 96-well culture plate at 90 μL per well. The 96-well plate was placed in a 5% CO2 incubator at 37° C., and after the cells were cultured for 24 hours, different concentrations of the compounds to be tested were added. Cells were incubated with compounds in the presence of 10% fetal bovine serum for 72 hours. The inhibition of cell growth was assessed by measuring ATP levels by using the CellTiter-Glo Luminescent Cell Viability Assay Kit (details in manufacturer's instructions). In brief, 30 μL of CellTiter-Glo reagent was added to each well and the plate was shaken for 10 minutes to induce cell lysis, then the fluorescent signal was detected and recorded with a Fluoroskan Ascent FL (Thermo). Maximum signal values were obtained from cells treated with DMSO for 72 hours. Minimum signal values were obtained with medium only (zero cell number). Inhibition rate %=(maximum signal value-compound signal value)/(maximum signal value-minimum signal value)×100%. Data were processed by using Graphpad prism5 software. IC50 values were calculated using a sigmoidal dose-response curve.

[7] = test system: H358 xenograft tumor; test: H358 human non-small cell lung cancer subcutaneous mouse xenograft model, anticancer activity; type: in vivo, BALB/c nude mice; conditions: 100 mg/kg, po, qd, 26 days
Protocol: In this experiment, the anticancer activities of compounds 73-1 and 90-1 in the subcutaneous tumor model of H358 human non-small cell lung cancer xenograft mice, and the dose-response relationship of compound 73-1 in inhibiting the growth of H358 xenograft tumors were investigated. […] When H358 cells were cultured to a sufficient number, cells were collected. […] Vernier calipers were used to measure the size of the tumor. The formula for calculating the tumor volume is: tumor volume=(length×width^2)/2, and the formula for calculating the relative tumor proliferation rate T/C value is: T/C (%)=100×ΔT/ΔC (ΔT>0) or T/T (%)=100×ΔT/T0 (ΔT<0). ΔT is the difference of tumor volume in the treatment group, ΔC is the difference of tumor volume in the vehicle control group, and T0 is the tumor volume in the treatment group before administration.
The dosage of the all groups, except the vehicle control group, was 100 mg/kg, 10 mL/kg orally administered by gavage, once a day. […] All the groups were administered continuously for 26 days.

[8] = molecular target: T1, KRAS-G12C/SOS1 (Homo sapiens, UniProt P01116, G12C); test: HTRF KRAS-G12C/SOS1 binding assay; conditions: 2 hours room temperature
T1 construct: purchased Cisbio #63ADK000CB16PEG
T1 sequence (P01116 1-188 isoform P01116-2 G12C): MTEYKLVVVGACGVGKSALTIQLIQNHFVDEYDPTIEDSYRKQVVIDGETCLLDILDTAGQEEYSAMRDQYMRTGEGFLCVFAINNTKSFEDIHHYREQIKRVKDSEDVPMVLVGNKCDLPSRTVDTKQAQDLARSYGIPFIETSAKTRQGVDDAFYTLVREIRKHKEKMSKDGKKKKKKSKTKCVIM
Protocol: 2) Diluted the compound to be tested with diluent into 10× stock solution, starting from a concentration of 10000 nM, diluting in 4-fold gradient and a total of 6 concentration gradients.
After incubated at room temperature for 15 minutes, added pre-mixed 5 uL of anti-Tag1-Tb^3+ and 5 uL of anti-Tag2-XL665. Sealed the plate and incubated at room temperature for 2 hours.
Data were processed by using Graphpad prism software.

[9] = test system: MIA Paca2 T2 xenograft tumor; test: MIA Paca2 T2 human pancreatic cancer xenograft mouse subcutaneous model
Protocol: MIAPaca2 cells were cultured to sufficient numbers in DMEM containing 10% fetal bovine serum and 2.5% horse serum, then harvested. 5 million cells suspended in 0.1 mL of serum-free medium and Matrigel (1:1, v/v) were injected subcutaneously into the right flank area of each mouse, carefully avoiding blood vessels and serially passaged 2 times in animals. The size of the tumor was measured using a vernier caliper, and the method for calculating the tumor volume and T/C value was the same as above. […] The compounds were respectively dissolved in 30% sulfobutyl-β-cyclodextrin (SBE-β-CD) and 1.5 equivalent of 1 M HCl (pH 4-5) at the corresponding concentrations. 10 mL/kg was orally administered continuously by gavage for 28 days.

[10] = test system: Caco-2 cell; test: Caco-2 cell transmembrane transport experiment; conditions: 10 μM, pH 7.4, 37° C., 90 min
[11] = test system: mouse tumors; conditions: mouse experiments, alone or combined; cited from earlier work
[12] = test system: non-small cell lung cancer (NSCLC); conditions: cited from earlier work
[13] = Caco-2, pH 7.4, Papp A-B Sample_01, 10 μM, pH 7.4, 37° C., 90 min, apical to basolateral
[14] = Caco-2, pH 7.4, Papp A-B Sample_02, 10 μM, pH 7.4, 37° C., 90 min, apical to basolateral
[15] = Caco-2, pH 7.4, Papp A-B mean value, 10 μM, pH 7.4, 37° C., 90 min, apical to basolateral
[16] = Caco-2, pH 7.4, Papp B-A Sample_01, 10 μM, pH 7.4, 37° C., 90 min
[17] = Caco-2, pH 7.4, Papp B-A Sample_02, 10 μM, pH 7.4, 37° C., 90 min
[18] = Caco-2, pH 7.4, Papp B-A mean value, 10 μM, pH 7.4, 37° C., 90 min
[19] = 13 evaluable patients, highest dose of 960 mg

Q: With CC[C@H]1OC(=O)[C@H](C)[C@@H](O[C@H]2C[C@@](C)(OC)[C@@H](O)[C@H](C)O2)[C@H](C)[C@@H](O[C@@H]2O[C@H](C)C[C@H](N(C)C)[C@H]2O)[C@](C)(O)C[C@@H](C)C(=O)[C@H](C)[C@@H](O)[C@]1(C)O [Erythromycin] as the compound, how does the efflux ratio at 90 min, 10 μM ([1]; Caco-2, pH 7.4) read?
A: The efflux ratio at 90 min, 10 μM was 30.6.

Q: What about the Papp A→B at 90 min, 10 μM ([1]; Caco-2, pH 7.4, Papp A-B Sample_01) of the same compound?
A: Its Papp A→B at 90 min, 10 μM is 0.46 ×10⁻⁶ cm/s.

Q: What about the Papp A→B at 90 min, 10 μM ([1]; Caco-2, pH 7.4, Papp A-B Sample_02) of the same compound?
A: Its Papp A→B at 90 min, 10 μM is 0.5 ×10⁻⁶ cm/s.

Q: What about the Papp A→B at 90 min, 10 μM ([1]; Caco-2, pH 7.4, Papp A-B mean value) of the same compound?
A: Its Papp A→B at 90 min, 10 μM is 0.48 ×10⁻⁶ cm/s.

Q: And the Papp B→A at 90 min, 10 μM ([1]; Caco-2, pH 7.4, Papp B-A Sample_01)?
A: The Papp B→A at 90 min, 10 μM was 13.8 ×10⁻⁶ cm/s.

Q: And the Papp B→A at 90 min, 10 μM ([1]; Caco-2, pH 7.4, Papp B-A Sample_02)?
A: Its Papp B→A at 90 min, 10 μM is 15.5 ×10⁻⁶ cm/s.

Q: And the Papp B→A at 90 min, 10 μM ([1]; Caco-2, pH 7.4, Papp B-A mean value)?
A: The Papp B→A at 90 min, 10 μM was 14.7 ×10⁻⁶ cm/s.

Q: For C=CC(=O)N1C[C@H](C)N(c2nc(=O)n(-c3c(C)ccnc3C(C)C)c3nc(-c4c(F)ccc5ccoc45)c(Cl)cc23)C[C@H]1C (single isomer, unassigned) [Compound 90-1], which IC50 [2] is on record?
A: Its IC50 is under 10 nM.

Q: What about the AUC(0-inf) [3] of the same compound?
A: The AUC(0-inf) was 13800 ng·h/mL.

Q: What about the Cmax [3] of the same compound?
A: Its Cmax is 3720 ng/mL.

Q: What about the Tmax [3] of the same compound?
A: Its Tmax is 1.33 h.

Q: What about the half-life [3] of the same compound?
A: The half-life was 3.26 h.

Q: And the AUC(0-t) [3]?
A: Its AUC(0-t) is 13800 ng·h/mL.

Q: What about the IC50 [4] of the same compound?
A: The IC50 was under 10 nM.

Q: What about the efflux ratio at 90 min, 10 μM ([5]; Caco-2, pH 7.4) of the same compound?
A: Its efflux ratio at 90 min, 10 μM is 1.08.

Q: What about the Papp A→B at 90 min, 10 μM [5, 13] of the same compound?
A: Its Papp A→B at 90 min, 10 μM is 20.1 ×10⁻⁶ cm/s.

Q: And the Papp A→B at 90 min, 10 μM [5, 14]?
A: Its Papp A→B at 90 min, 10 μM is 20.4 ×10⁻⁶ cm/s.

Q: And the Papp A→B at 90 min, 10 μM [5, 15]?
A: The Papp A→B at 90 min, 10 μM was 20.2 ×10⁻⁶ cm/s.

Q: What about the Papp B→A at 90 min, 10 μM [5, 16] of the same compound?
A: The Papp B→A at 90 min, 10 μM was 18.6 ×10⁻⁶ cm/s.

Q: What about the Papp B→A at 90 min, 10 μM [5, 17] of the same compound?
A: The Papp B→A at 90 min, 10 μM was 25.2 ×10⁻⁶ cm/s.

Q: What about the Papp B→A at 90 min, 10 μM [5, 18] of the same compound?
A: The Papp B→A at 90 min, 10 μM was 21.9 ×10⁻⁶ cm/s.

Q: What about the Papp A→B at 90 min, 10 μM ([5]; Caco-2, pH 7.4, apparent permeability coefficient Papp A-B, Caco-2) of the same compound?
A: The Papp A→B at 90 min, 10 μM was over 10 ×10⁻⁶ cm/s.

Q: And the melting point?
A: The melting point was 175 to 177 °C.

Q: What about the IC50 [6] of the same compound?
A: Its IC50 is under 10 nM.

Q: And the “Changes of body weight (%)” value [7]?
A: Its value is 23.3%.

Q: And the “tumor suppressor T/C value (%)” value [7]?
A: The value was −99.5%.

Q: And the IC50 [8]?
A: The IC50 was under 50 nM.

Q: Which results are given for C=CC(=O)N1CCN(c2nc(=O)n(-c3c(C)ccnc3C(C)C)c3nc(-c4c(O)cccc4F)c(F)cc23)[C@@H](C)C1 (atropisomer, axis not shown) [AMG510, reference compound]?
A: AUC(0-inf) [3]: 3430 ng·h/mL; Cmax [3]: 3250 ng/mL; Tmax [3]: 0.33 h; half-life [3]: 6.76 h; AUC(0-t) [3]: 3370 ng·h/mL; Changes of body weight (%) ([9]; 100 mg/kg, po, qd, 28 days): 13.8%; effect on tumor (in words) ([9]; 28 days oral, 73-1 50 mg/kg bid, AMG510 100 mg/kg qd): shrink the tumor; Papp A→B at 90 min, 10 μM [5, 13]: 5.83 ×10⁻⁶ cm/s; Papp A→B at 90 min, 10 μM [5, 14]: 4.94 ×10⁻⁶ cm/s; Papp A→B at 90 min, 10 μM [5, 15]: 5.39 ×10⁻⁶ cm/s; Papp B→A at 90 min, 10 μM [5, 16]: 27.9 ×10⁻⁶ cm/s; Papp B→A at 90 min, 10 μM [5, 17]: 39.1 ×10⁻⁶ cm/s; Papp B→A at 90 min, 10 μM [5, 18]: 33.5 ×10⁻⁶ cm/s; efflux rate Papp(B-A)/Papp(A-B) [10]: 6.22; mice whose tumor completely disappeared [11]: 10%; Changes of body weight (%) [7]: 16.4%; effect on tumor (in words) [7]: shrink the tumor; tumor suppressor T/C value (%) [7]: −93.8%; DCR [12, 19]: 100%; ORR [12, 19]: 54%; partial response (PR) [12, 19]: 54%; disease control rate (DCR) ([12]; 23 evaluable NSCLC patients): 96%; objective response rate (ORR) ([12]; 23 evaluable NSCLC patients): 48%; partial response (PR) ([12]; 23 evaluable NSCLC patients): 48%; progressive disease (PD) ([12]; 23 evaluable NSCLC patients): 4%; dose-limiting toxicity and adverse reactions above grade IV ([12]; phase I patients): No dose-limiting toxicity (DLT) and drug-related adverse reactions above grade IV were found; tolerability (in words) ([12]; phase I patients): well tolerated
